Tested on: patients with diabetes mellitus and eGFR <90 mL/min/1.73 m^2 for ≥3 months
Assay: ANCHOR post-hoc: lipids/lipoproteins, apolipoproteins, oxidation and inflammation markers
Type: in vivo, human
Description: A multi-center, placebo-controlled, randomized, double-blind, 12-week study is performed to evaluate the efficacy and safety of >96% E-EPA in patients with fasting triglyceride levels ≥200 mg/dl and <500 mg/dl despite statin therapy (the mean of two qualifying entry values needs to be ≥185 mg/dl and at least one of the values needs to be ≥200 mg/dl). The primary objective of the study is to determine the efficacy of >96% E-EPA 2 g daily and 4 g daily, compared to placebo, in lowering fasting TG levels in patients with high risk for cardiovascular disease and with fasting TG levels ≥200 mg/dL and <500 mg/dL, despite treatment to LDL-C goal on statin therapy.
The primary efficacy variable for the double-blind treatment period is percent change in TG from baseline to Week 12 endpoint. The secondary efficacy variables for the double-blind treatment period include the following: • Percent changes in total cholesterol (TC), high-density lipoprotein cholesterol (HDL-C), LDL-C, calculated non-HDL-C, and very low-density lipoprotein cholesterol (VLDL-C) from baseline to Week 12 endpoint; • Percent change in very low-density lipoprotein TG from baseline to Week 12; • Percent changes in apolipoprotein A-I (apo A-I), apolipoprotein B (apo B), and apo A-I/apo B ratio from baseline to Week 12; • Percent changes in lipoprotein(a) from baseline to Week 12; • Percent changes in LDL particle number and size, measured by nuclear magnetic resonance, from baseline to Week 12; • Percent change in remnant-like particle cholesterol from baseline to Week 12; • Percent change in oxidized LDL from baseline to Week 12; • Changes in FPG and HbA1c from baseline to Week 12; • Change in insulin resistance, as assessed by the homeostasis model index insulin resistance, from baseline to Week 12; • Percent change in lipoprotein associated phospholipase A2 (Lp-PLA2) from baseline to Week 12; • Change in intracellular adhesion molecule-1 from baseline to Week 12; • Change in interleukin-2 from baseline to Week 12; • Change in plasminogen activator inhibitor-1 from baseline to Week 12. Note: this parameter will only be collected at sites with proper storage conditions; • Change in hsCRP from baseline to Week 12; and • Change in plasma concentration and red blood cell membrane content of fatty acid from baseline to Week 12 including EPA, DPA, DHA, AA, dihomo-γ-linolenic acid (DGLA), the ratio of EPA/AA, ratio of oleic acid/stearic acid (OA/SA), and the ratio of total omega-3 acids over total omega-6 acids.
CVD-related (e.g., atherogenic) parameters were analyzed in a post-hoc study of 198 patients from the multi-center, placebo-controlled, randomized double-blind, 12-week study described in Example 1. These 198 patients have reduced kidney reduced function (e.g., eGFR<90 mL/min/1.73 m^2 for ≥3 months) and diabetes mellitus.
Objective. The primary objective of this post-hoc study was to determine if and how 4 g of daily of >96% E-EPA, compared to placebo, affects patients with reduced kidney function, diabetes mellitus, and high triglyceride levels. The secondary objective was to determine if and how 4 g daily >96% E-EPA, compared to placebo, affected CVD-related parameters in patients having a high risk for CVD and fasting TG levels […]200 mg/dL and <500 mg/dL, despite treatment to LDL-C goal on statin therapy. These CVD-parameters include lipid levels, lipoprotein levels, and inflammatory markers, such as TC, LDL-C, HDL-C, VLDL-C, VLDL-TG, RLP-C, non-HDL-C, Apo B, Apo C-III, Lp-PLA2, hsCRP, and ox-LDL, and in plasma and RBC EPA concentration. CVD-parameters were analyzed for median difference in percent change from baseline to week 12 in subjects receiving 4 g/day of E-EPA and those receiving the placebo.
Subjects: 98 patients were randomized to E-EPA and 100 patients were randomized to placebo. In total, atherogenic parameters were analyzed in all 198 patients, 56% of which were male and 97% of which were white. The mean age of the 198 patients was 63 years old. […]

[1] = 4 g/day group, before treatment
[2] = 4 g/day, week 12, Hodges-Lehmann

`CC/C=C\C/C=C\C/C=C\C/C=C\C/C=C\CCCC(=O)OCC` [E-EPA, ethyl eicosapentaenoate] was tested, and the “RLP-C Baseline, median” value (4 g/day group (n = 34), before treatment) was 14.0 mg/dL, the “Ox-LDL Baseline, median (IQR)” value (4 g/day group (n = 41), before treatment) was 54.2 (15.8) U/L and the “Apo B Baseline, median (IQR)” value [1] was 92.0 (22.0) mg/dL. The “Apo C-III Baseline, median (IQR)” value [1] was 42.0 (20.0) mg/dL, the “HDL-C Baseline, median” value [1] was 36.0 mg/dL and the “LDL-C Baseline, median” value [1] was 82.5 mg/dL. For the same molecule, the “Lp-PLA2 Baseline, median (IQR)” value [1] was 178.0 (54.0) ng/mL, the “Non-HDL-C Baseline, median” value [1] was 128.5 mg/dL and the “TC Baseline, median” value [1] was 169.5 mg/dL. The “TG Baseline, median” value [1] was 262.5 mg/dL, the “VLDL-C Baseline, median” value [1] was 42.0 mg/dL and the “VLDL-TG Baseline, median” value [1] was 186.0 mg/dL. The “hsCRP Baseline, median (IQR)” value [1] was 2.2 (2.9) mg/L, the “reduction of triglycerides compared to placebo” value (4 g/day, 12 weeks, P<0.0001) was “about 19.7%” and the “Apo B Change From Baseline, %, median (IQR)” value (4 g/day, week 12) was −3.5 (17.0) %. For the same molecule, the “Apo B End of Treatment, median (IQR)” value (4 g/day, week 12) was 88.0 (25.0) mg/dL, the “Apo C-III Change From Baseline, %, median (IQR)” value (4 g/day, week 12) was −12.3 (45.6) % and the “Apo C-III End of Treatment, median (IQR)” value (4 g/day, week 12) was 36.5 (23.0) mg/dL. The “HDL-C Change From Baseline, %, median” value (4 g/day, week 12) was −3.0%, the “HDL-C End of Treatment, median” value (4 g/day, week 12) was 37.0 mg/dL and the “LDL-C Change From Baseline, %, median” value (4 g/day, week 12) was −2.1%. For the same molecule, the “LDL-C End of Treatment, median” value (4 g/day, week 12) was 83.0 mg/dL, the “Lp-PLA2 Change From Baseline, %, median (IQR)” value (4 g/day, week 12) was −14.4 (16.5) % and the “Lp-PLA2 End of Treatment, median (IQR)” value (4 g/day, week 12) was 160.0 (52.0) ng/mL. The “Non-HDL-C Change From Baseline, %, median” value (4 g/day, week 12) was −6.0%, the “Non-HDL-C End of Treatment, median” value (4 g/day, week 12) was 120.5 mg/dL and the “Ox-LDL Change From Baseline, %, median (IQR)” value (4 g/day, week 12) was −8.2 (17.8) %. For the same molecule, the “Ox-LDL End of Treatment, median (IQR)” value (4 g/day, week 12) was 49.5 (12.8) U/L, the “TC Change From Baseline, %, median” value (4 g/day, week 12) was −5.2% and the “TC End of Treatment, median” value (4 g/day, week 12) was 160.5 mg/dL. For the same molecule, the “TG Change From Baseline, %, median” value (4 g/day, week 12) was −19.3%, the “TG End of Treatment, median” value (4 g/day, week 12) was 209.8 mg/dL and the “VLDL-C Change From Baseline, %, median” value (4 g/day, week 12) was −12.3%. For the same molecule, the “VLDL-C End of Treatment, median” value (4 g/day, week 12) was 36.5 mg/dL, the “VLDL-TG Change From Baseline, %, median” value (4 g/day, week 12) was −19.2% and the “VLDL-TG End of Treatment, median” value (4 g/day, week 12) was 146.0 mg/dL. For the same molecule, the “hsCRP Change From Baseline, %, median (IQR)” value (4 g/day, week 12) was −2.4 (81.7) %, the “hsCRP End of Treatment, median (IQR)” value (4 g/day, week 12) was 1.7 (3.0) mg/L and the “Apo B Median Difference in % Change From Baseline vs. Placebo” value [2] was −10.1, <0.0001%. For the same molecule, the “Apo C-III Median Difference in % Change From Baseline vs. Placebo” value [2] was −19.0, 0.0006%, the “HDL-C Median Difference in % Change From Baseline vs. Placebo” value [2] was −7.0, 0.0009% and the “LDL-C Median Difference in % Change From Baseline vs. Placebo” value [2] was −7.1, 0.0375%. For the same molecule, the “Lp-PLA2 Median Difference in % Change From Baseline vs. Placebo” value [2] was −16.6, <0.0001%, the “Non-HDL-C Median Difference in % Change From Baseline vs. Placebo” value [2] was −13.7, <0.0001% and the “Ox-LDL Median Difference in % Change From Baseline vs. Placebo” value [2] was −16.2, <0.0001%. The “RLP-C Median Difference in % Change From Baseline vs. Placebo” value [2] was −35.4, 0.0029%, the “TC Median Difference in % Change From Baseline vs. Placebo” value [2] was −12.5, <0.0001% and the “TG Median Difference in % Change From Baseline for Icosapent Ethyl 4 g/day vs. Placebo” value [2] was −19.7, <0.0001%. The “VLDL-C Median Difference in % Change From Baseline vs. Placebo” value [2] was −19.0, 0.0006%, the “VLDL-TG Median Difference in % Change From Baseline vs. Placebo” value [2] was −22.3, <0.0001% and the “hsCRP Median Difference in % Change From Baseline vs. Placebo” value [2] was −24.4, 0.0120%. The “RLP-C Change From Baseline, %, median” value (4 g/day, week 12, n = 34) was −28.9% and the “RLP-C End of Treatment, median” value (4 g/day, week 12, n = 34) was 9.5 mg/dL.

Reference: patent US20230248741A1, “Compositions and Methods for Lowering Triglycerides in a Subject with Reduced Kidney Function and Diabetes Mellitus” (Amarin Pharmaceuticals Ireland Limited, priority 2018, published 2023)
